Earlier results in US8029830B2, “Composition and method for promoting internal health and external appearance” (Nuvocare Health Services Inc., priority 2008, dated 2011).
Read-outs that look alike come from different tables or passages of the source.

Key:
[1] = test system: persons with type 2 diabetes mellitus
healthy volunteers = details: daily oral, 8 weeks
pigs = details: pretreatment; hyperbaric oxygen (HBO)
thymocytes = details: irradiated (6 Gy)
[2] = in vitro
macrophage cultures = details: impairment induced by phorbol esters
rat kidney fibroblasts = details: UVA light
older and younger women = details: following caffeine ingestion
rats = details: rat, in vivo
[3] = test system: lean volunteers and post-obese subjects
[4] = human, in vivo
mice = details: topical application
sedentary human subjects = details: for body fat percentage, body fat mass and lean body mass: oral ingestion for 12 weeks
[5] = 28 days of supplementation
male subjects = details: cycling capacity
healthy human volunteers = details: at the end of the treatment period
[6] = test system: human plasma, blood platelets and lymphocytes
[7] = test system: rat model of diabetic neuropathy; details: intraperitoneal treatment for 2 weeks

For [Zn] [zinc], the “decrease of plasma TBARS” value ([1]; after six months) is given as 15%, the plasma zinc values ([1]; after three and six months of supplementation, all subjects) is given as “greater than 10.7 micro mol/L” and the “plasma levels of lipid peroxidation products and DNA adducts” value (healthy volunteers) is given as “decreased”.

For superoxide dismutase, the DNA strand-break damage (pigs) is given as “protected against DNA strand-break damage”.

For CC[C@H](CC[C@@H](C)[C@H]1CC[C@H]2[C@@H]3CC=C4C[C@@H](O)CC[C@]4(C)[C@H]3CC[C@]12C)C(C)C [beta-sitosterol], the “activities of antioxidant enzymes (SOD, CAT, GPx)” value (thymocytes) is listed as “increasing”, the “intracellular reactive oxygen species (ROS)” value (thymocytes) is listed as “attenuating” and the “irradiation-induced cell death and nuclear DNA strand breaks” value (thymocytes) is listed as “decreased”. The radical scavenging [2] was “modest radical scavenger” and the glutathione/oxidized glutathione ratio (macrophage cultures) was “reverts the impairment”.

In the case of CC1=C(/C=C/C(C)=C/C=C/C(C)=C/C=C/C=C(C)/C=C/C=C(C)/C=C/C2=C(C)C(=O)[C@@H](O)CC2(C)C)C(C)(C)C[C@H](O)C1=O [astaxanthin], the improvement in skin-surface-moisture (middle-aged women; oral delivery, after 6 weeks) is listed as 52%, the reduction in wrinkles (middle-aged women; oral delivery, after 6 weeks) is listed as 54% and the “fine lines and wrinkles, elasticity and moisture content” value (middle-aged women; six weeks, instrumentation and dermatologist's review) is listed as “significant improvements”. For the same compound, the “indices of oxidative stress (CAT, SOD activities, TBARS)” value (rat kidney fibroblasts) was “inhibit these indices of oxidative stress”, the “protective properties compared to beta-carotene and lutein” value (rat kidney fibroblasts) was “superior protective properties” and the “plasma 12- and 15-hydroxy fatty acids” value (healthy subjects; during supplementation) was “reduced significantly”. For the same compound, the plasma astaxanthin levels (healthy subjects; in vivo) was “significantly elevated” and the tolerability (healthy subjects; in vivo) was “well tolerated”.

For Cn1c(=O)c2c(ncn2C)n(C)c1=O [caffeine], the energy expenditure (older and younger women) is listed as “increased energy expenditure significantly”, the neurodegeneration (rats) is listed as “protective effects” and the “subsequent 12-h night EE” value ([3]; in vivo) is listed as “no influence”. For the same compound, the “increase in daily EE” value ([3]; lean volunteers) was 150 kcal, the “increase in daily EE” value ([3]; post-obese subjects) was 79 kcal and the “increase of energy expenditure (EE)” value ([3]; repeated administration at 2-hour intervals over a 12-hour day period, two subject groups) was 8-11%. The energy expenditure [4] was “increased energy expenditure dose dependently”.

In the case of epigallocatechin-3-gallate [EGCG], the “UVB-induced skin tumor development” value (mice) is listed as “prevents UVB-induced skin tumor development”.

For C=C[C@@]1(C)CC(=O)[C@]2(O)[C@@]3(C)[C@@H](O)CCC(C)(C)[C@@H]3[C@H](O)[C@H](OC(C)=O)[C@@]2(C)O1 [forskholin], the “lean body mass gained, on average” value (sedentary human subjects; in the course of the study) is listed as 8.2 pounds, the “body fat percentage, body fat mass and lean body mass” value (sedentary human subjects) is listed as “significantly decrease body fat percentage while increasing lean body mass” and the “body fat percentage, body fat mass and lean body mass” value (sedentary human subjects; listed as forkohlin) is listed as “decreasing body fat percentage and body fat mass”.

In the case of NCCC(=O)O [beta-alanine], the “increase in PWCFT” value [5] is listed as 14.5%, the “muscle carnosine level and total work done” value (male subjects) is listed as “significant muscle carnosine level increases, as well as an increase in total work done” and the “onset of neuromuscular fatigue and ventilatory threshold” value (women subjects; 4 weeks, submaximal workloads) is listed as “delayed”. The time-to-exhaustion (women subjects; maximal cycle ergometry performance) was “increased” and the muscle carnosine levels (vastus lateralis) was “significant increases”.

For vitamin E, the “decrease of urine lipid peroxidation products” value (healthy human volunteers) is listed as 27%.

For Oc1ccc(C=Cc2cc(O)cc(O)c2)cc1 [resveratrol], the “oxidative stress levels in plasma” value ([6]; after incubation with platinum compounds) is given as “distinct reduction”, the “biomarker of lipid peroxidation” value ([6]; control blood platelets and platelets treated with platinum compounds) is given as “decreased the production” and the “DNA damage (measured by comet assay)” value ([6]; lymphocytes, vs platinum compounds without resveratrol) is given as “significant decrease”. For the same compound, the “pathologies associated with diabetic neuropathy” value [7] was “protective effects”.
